Data: patent publication US10646501B2, “Reducing the reproductive capacity of mammals” (priority 2012, dated 2020)

Tests used:
[1] = system: male rat fertility; conditions: oral exposure; cited from earlier work
[2] = system: rat pup ovaries (ovarian follicles); test: in vitro ovarian culture bioassay of follicle depletion (ovaries cultured 8 days, histology, follicle counts); assay type: cell-based; design: key to Biological activity (ranking, follicle depletion): 1—least chemical reactivity/biological activity; 6—most chemical reactivity/biological activity; conditions: for follicle depletion, diepoxide combined with Triptolide / Biological activity (ranking, follicle depletion): diepoxide 30 μM + Trip 5 nM; for Biological activity (ranking, follicle depletion): rank 1 to 6
Source text: The biological activity of the epoxides can be evaluated in an in vitro bioassay using rat pup ovaries based on method reported in “Characterization of a rat in vitro ovarian culture system to study the ovarian toxicant 4-vinylcyclohexene diepoxide.” Devine et. al. 2002, Taxicol. Appl. Pharmacol. 184, 107-115, incorporated herein by reference. Biological activity can be determined by follicle counts in ovarian sections after week long culture with micro molar concentrations of the epoxide. In general, biologically active epoxides will also be chemically active as well but not vice versa.
FIGS. 3A, 3B and 3C illustrate an in vitro culture system for evaluating the efficacy of follicle-depletion compositions (developed by Patrick J. Devine). As set forth in the various examples herein, ovaries are cultured with VCD with or without triptolide in serum-free media for 8 days, no gonadotropins present, no media changes and active ingredients added just once at start of culture. Ovaries are collected and processed for histology to perform follicle counting.
In vitro bioassay of follicle depletion, ovaries cultured for 8 days with different chemicals
Control—no chemicals, Triptolide—5 nM (Trip), Diepoxides. RDE, CHDE, Quetol, ERL 4221, BDE, GDE, each at 30 μM+Trip 5 nM
Ovaries were prepared for histological analysis for determination of follicle depletion

[3] = epoxide assay of chemical reactivity (alkylating assay using 4-(p-nitrobenzyl) pyridine); assay type: physicochemical; design: key to Chemical reactivity (ranking): 1—least chemical reactivity/biological activity; 6—most chemical reactivity/biological activity; conditions: for Chemical reactivity (ranking): reactivity in epoxide assay, rank 1 to 6
Source text: The chemical reactivity of the epoxides can determined in an alkylating assay using 4-(p-nitrobenzyl) pyridine (NBP) based on the method reported in “Detection of epoxides with 4-(p-nitrobenzyl) pyridine.” Agarwal et. al. 1979, Bull. Environm. Contam. Toxicol. 23, 825-829, incorporated herein by reference.
Compared chemical (reactivity in epoxide assay) to biological activity (follicle depletion)

[4] = system: ovarian failure; test: VCD alone as the only active ingredient, premature ovarian failure; assay type: in vivo; conditions: low concentrations or short exposure durations <15 days
Source text: Premature ovarian failure is when no more ovulations occur in spite of eggs/follicles being present in an ovary. For compositions and methods to function as a means of population control, the ovarian failure desirably occurs rapidly, for example within 10 days of treatment for rodents.

[5] = system: Sprague Dawley rats (Rattus norvegicus); conditions: via gavage; cited from earlier work
[6] = 30 μm VCD alone, cultured ovary, 8 days

Compound | Chemical reactivity (ranking) [3] | follicle depletion, diepoxide combined with Triptolide ([2]; ovaries cultured 8 days) | Biological activity (ranking, follicle depletion) ([2]; ovaries cultured 8 days) | further results
CC(C)[C@]12O[C@H]1[C@@H]1O[C@]13[C@]1(O[C@H]1C[C@H]1C4=C(CC[C@@]13C)C(=O)OC4)[C@@H]2O [Triptolide, triptolide] |  |  |  | effect on male rat fertility [1]: compromise male rat fertility to ultimate sterility; follicle depletion, triptolide alone ([2]; Triptolide 5 nM alone, ovaries cultured 8 days): did not cause significant follicle depletion
C(CCOCC1CO1)COCC1CO1 (centres unmarked) [BDE, 1,4-butanediol diglycidyl ether] | 6 | caused significant follicle depletion | 3 | 
C1CC(COCC2CO2)CCC1COCC1CO1 (centres unmarked) [CHDE, 1,4-cyclohexanedimethanol diglycidyl ether] | 3 | caused significant follicle depletion | 4 | 
C1CC2OC2CC1C1CO1 (centres unmarked) [VCD, 4-vinylcyclohexene diepoxide] |  |  |  | premature ovarian failure [4]: did not cause premature ovarian failure; primordial follicle depletion [5]: efficacious to cause non-regenerating primordial follicle depletion; effect on the other stages of follicles [2, 6]: not significantly affected; reduction in primordial follicles [2, 6]: 38%
O=C(OCC1CCC2OC2C1)C1CCC2OC2C1 (centres unmarked) [ERL 4221, 3,4-epoxy-cyclohexyl-methyl-3,4-epoxycyclohexyl carboxylate] | 1 | caused significant follicle depletion | 6 | chemical reactivity in words ([3]; among the six diepoxides): least chemically reactive; biological activity in words ([2]; when combined with Trip, among the six diepoxides): most biologically active
C(COCC1CO1)OCC1CO1 (centres unmarked) [Quetol, ethylene glycol diglycidyl ether] | 2 | caused significant follicle depletion | 5 | 
Oc1cccc(OCC2CO2)c1 (centres unmarked) [RDE, resorcinol glycidyl ether] | 4 | did not cause significant follicle depletion | 1 | 
OCC(COCC1CO1)OCC1CO1 (centres unmarked) [GDE, glycerol diglycidyl ether] | 5 | caused significant follicle depletion | 2 | 
